Where no end group is shown, it is not given here.
System: surgical incisions on the backs of Swiss-Webster mice
Assay: Scar formation after surgical incisions, synthetic peptide-metal complexes injected along the incision line
Type: in vivo
Details: for Scar Formation score (5 days): 10 mice each, 1 mg/ml in 0.85% saline, 0.02 ml injected at four sites on each side of incision, immediately after surgery and 24 hours later, rated 0 to 4 (heavy scarring), untreated control 3.6; for post-surgical scar formation compared with control wounds (in words): mice, injection along incision line

Molecule	Scar Formation score (5 days)	post-surgical scar formation compared with control wounds (in words)
Cysteine sulfinic acid-Copper(II) [reference compound]	2.9 ± 0.5	much less active
His-Gly-Gly-Copper(II)	0.5 ± 0.2	
N[C@@H](CCS(=O)(=O)O)C(=O)O.[Cu+2] [Homocysteic acid-Copper(II), reference compound]		much less active
Gly-Cys-Gly-Copper(II)	1.4 ± 0.3	
Gly-His-Lys-His-Tin(II) (GHKH; also: tin(II) complex)	0.4 ± 0.2	
Gly-Gly-Gly-Copper(II)	0.5 ± 0.3	
Gly-His-Lys-Tin(II)	0.4 ± 0.1	
His-Gly-Gly-Tin(II)	0.4 ± 0.2	
Phe-Phe-Copper(II)	0.5 ± 0.3	
Gly-His-Lys-His-Copper(II) (GHKH; also: copper(II) complex)	0.4 ± 0.2	
Gly-His-Lys-Copper(II)	0.2 ± 0.1	
N[C@@H](CS(=O)(=O)O)C(=O)O.[Cu+2] [Cysteic acid-Copper(II), reference compound]		much less active
Ala-Gly-His-Copper(II)	0.3 ± 0.1	
Gly-Gly-His-Copper(II)	0.3 ± 0.2	
Ala-Gly-His-Tin(II)	0.3 ± 0.1	
